Assay [1] deals with Puccinia recondita. Kind of assay: Test Example E: Brown rust on wheat. To be noted: for Test E control value class: class of control value. Type of assay: in vivo.
Assay [2] deals with Botrytis cinerea. The experiment in a line: Test Example B: Gray mold on tomato. To be noted: for Test B control value class: class of control value.
Assay [3] relates to Plasmopara viticola. Kind of assay: Test Example G: Downy mildew on vine. The conditions noted are these: for Test G control value: 7 to 10 days after inoculation; for Test G control value class: Downy mildew on vine (Neomuscat), 2.5 ml/pot, assessed 7 to 10 days after inoculation.
Assay [4] concerns Colletotrichum orbiculare. Kind of assay: Test Example H: Anthracnose on cucumber. To be noted: for Test H control value: 6 to 10 days after inoculation; for Test H control value class: Anthracnose on cucumber (Sagami Hanjiro), 2.5 ml/pot, assessed 6 to 10 days after inoculation.
Assay [5] relates to Alternaia brassicicola. The experiment in a line: Test Example C: Alternaria sooty spot on cabbage. Type of assay: in vivo. The conditions noted are these: for Test C control value class: class of control value. The source says: Seeds of a test plant (cabbage variety: Shikidori) were planted and cultivated until the cotyledons extended.
<Control Value> Control value=100{1−(n/3)}

The subject of assay [6] is Magnaporthe grisea. The experiment in a line: whole plant or invertebrate. Type of assay: in vivo. To be noted: for Test A control value class: class of control value.
The subject of assay [7] is Phytophthora infestans. The experiment in a line: whole plant or invertebrate. Type of assay: in vivo. The conditions noted are these: for Test F control value class: class of control value.
The subject of assay [8] is Blumeria graminis f. sp. hordei. Kind of assay: Test Example D: Powdery mildew on barley. The conditions noted are these: for Test D control value class: class of control value.
[9] abbreviates: 250 ppm drug solution sprayed on test plant.
Setting [10] is: 250 ppm drug solution sprayed (2.5 ml/pot), grape Neomuscat.
Setting [11] is: 250 ppm drug solution sprayed (2.5 ml/pot), cucumber Sagami Hanjiro.
Where [12] appears, read: Brown rust on wheat, control value class.
Where [13] appears, read: Gray mold on tomato, control value class.
Where [14] appears, read: Downy mildew on vine, 250 ppm spray.
Setting [15] is: Anthracnose on cucumber, 250 ppm spray.
[16] abbreviates: Alternaria sooty spot on cabbage, control value class.
Setting [17] is: Blast on rice, control value class.
[18] abbreviates: Late blight on tomato, control value class.
The mark [19] stands for this setting: Powdery mildew on barley, control value class.
[20] abbreviates: Alternaria sooty spot on cabbage.

SMILES strings stand for the structures.

Regarding `CCn1c(-c2c(F)cc(F)cc2F)c(C(OC)C(C)C)cc(Br)c1=O` (stereo not shown) [compound 501], in assay [1] (setting [9]), the “Test E control value” is reported as “H (more than 50% control value)”. In addition, the “Test B control value” in assay [2] (setting [9]) is given as “H (more than 50% control value)”. For the same compound, the “Test G control value” in assay [3] (setting [10]) is recorded as “L (50% or less control value)”. In addition, in assay [4] (setting [11]), the “Test H control value” is “H (more than 50% control value)”. Besides, the “Test C control value” in assay [5] (setting [9]) is “H (more than 50% control value)”. The “Test A control value” in assay [6] (setting [9]) is listed as “H (more than 50% control value)”. For the same compound, the “Test F control value” in assay [7] (setting [9]) is given as “L (50% or less control value)”. In assay [8] (setting [9]), the “Test D control value” is “H (more than 50% control value)”.

Take `CCn1c(-c2ccc(F)cc2Cl)c(C=C(Br)Br)cc(Cl)c1=O` [compound 301]: in assay [1] (setting [12]), the “Test E control value” is “H (more than 50% control value)”. The “Test B control value” in assay [2] (setting [13]) is given as “H (more than 50% control value)”. The “Test G control value” in assay [3] (setting [14]) is reported as “L (50% or less control value)”. Moreover, in assay [4] (setting [15]), the “Test H control value” is reported as “H (more than 50% control value)”. The “Test C control value” in assay [5] (setting [16]) is “H (more than 50% control value)”. Further, the “Test A control value” in assay [6] (setting [17]) was “H (more than 50% control value)”. For the same compound, in assay [7] (setting [18]), the “Test F control value” was “L (50% or less control value)”. Moreover, in assay [8] (setting [19]), the “Test D control value” is “H (more than 50% control value)”.

For `CCc1ccc(=O)n(CC)c1-c1ccc(F)cc1Br` [compound 340], in assay [1] (setting [12]), the “Test E control value” is on record as “H (more than 50% control value)”. In addition, in assay [2] (setting [13]), the “Test B control value” was “H (more than 50% control value)”. The “Test G control value” in assay [3] (setting [14]) was “L (50% or less control value)”. Besides, the “Test H control value” in assay [4] (setting [15]) was “L (50% or less control value)”. In assay [5] (setting [16]), the “Test C control value” is reported as “H (more than 50% control value)”. Besides, the “Test A control value” in assay [6] (setting [17]) was “L (50% or less control value)”. For the same compound, the “Test F control value” in assay [7] (setting [18]) is listed as “L (50% or less control value)”. In assay [8] (setting [19]), the “Test D control value” is given as “H (more than 50% control value)”.

Consider `CCc1cc(Br)c(=O)n(CC)c1-c1c(F)cc(OC)cc1F` [compound 391], for which the “Test E control value” in assay [1] (setting [9]) is reported as “H (more than 50% control value)”. For the same compound, the “Test B control value” in assay [2] (setting [9]) was “H (more than 50% control value)”. Besides, the “Test G control value” in assay [3] (setting [10]) was “L (50% or less control value)”. For the same compound, the “Test H control value” in assay [4] (setting [11]) was “H (more than 50% control value)”. Also, in assay [5] (setting [9]), the “Test C control value” was “H (more than 50% control value)”. For the same compound, the “Test A control value” in assay [6] (setting [9]) is reported as “H (more than 50% control value)”. Further, the “Test F control value” in assay [7] (setting [9]) is given as “L (50% or less control value)”. The “Test D control value” in assay [8] (setting [9]) is on record as “L (50% or less control value)”.

Take `CCc1cc(Br)c(=O)n(CC)c1-c1ccc(OC)cc1C` [compound 356]: the “Test E control value” in assay [1] (setting [12]) was “H (more than 50% control value)”. In assay [2] (setting [13]), the “Test B control value” is on record as “H (more than 50% control value)”. In assay [3] (setting [14]), the “Test G control value” is recorded as “L (50% or less control value)”. Also, the “Test H control value” in assay [4] (setting [15]) is “H (more than 50% control value)”. Further, the “Test C control value” in assay [5] (setting [16]) was “H (more than 50% control value)”. In addition, the “Test A control value” in assay [6] (setting [17]) is reported as “H (more than 50% control value)”. For the same compound, the “Test F control value” in assay [7] (setting [18]) was “L (50% or less control value)”. Besides, the “Test D control value” in assay [8] (setting [19]) is “H (more than 50% control value)”.

On to `CCn1c(-c2c(F)cc(F)cc2F)c(C(Cl)=CCl)cc(Cl)c1=O` [compound 309], for which the “Test E control value” in assay [1] (setting [12]) is listed as “H (more than 50% control value)”. Further, the “Test B control value” in assay [2] (setting [13]) was “H (more than 50% control value)”. Further, the “Test G control value” in assay [3] (setting [14]) is given as “H (more than 50% control value)”. In assay [4] (setting [15]), the “Test H control value” is given as “H (more than 50% control value)”. Also, the “Test C control value” in assay [5] (setting [16]) is “H (more than 50% control value)”. The “Test A control value” in assay [6] (setting [17]) was “H (more than 50% control value)”. The “Test F control value” in assay [7] (setting [18]) is “L (50% or less control value)”. In addition, the “Test D control value” in assay [8] (setting [19]) is on record as “H (more than 50% control value)”.

Turning to `C#CCOc1ccc(-c2c(CC(C)C)cc(Cl)c(=O)n2CC)c(F)c1` [compound 125], the “Test E control value class” value in assay [1] (Brown rust on wheat) was “H (more than 50% control value)”. Besides, in assay [2] (Gray mold on tomato), the “Test B control value class” value was “H (more than 50% control value)”. Moreover, the “Test G control value class” value in assay [3] (250 ppm spray) is reported as “H (more than 50% control value)”. The “Test H control value class” value in assay [4] (250 ppm spray) was “H (more than 50% control value)”. Besides, the “Test C control value class” value in assay [5] (setting [20]) was “H (more than 50% control value)”. The “Test A control value class” value in assay [6] (Blast on rice) was “H (more than 50% control value)”. For the same compound, the “Test F control value class” value in assay [7] (Late blight on tomato) is on record as “L (50% or less control value)”. Besides, the “Test D control value class” value in assay [8] (Powdery mildew on barley) is “H (more than 50% control value)”.

Regarding `CCn1c(-c2ccc(C#N)cc2)c(C(C)(OC)C(C)C)cc(Cl)c1=O` (stereo not shown) [compound 250], the “Test E control value” in assay [1] (setting [12]) is recorded as “H (more than 50% control value)”. Besides, in assay [2] (setting [13]), the “Test B control value” is given as “H (more than 50% control value)”. The “Test G control value” in assay [3] (setting [14]) is “L (50% or less control value)”. The “Test H control value” in assay [4] (setting [15]) is recorded as “L (50% or less control value)”. Besides, the “Test C control value” in assay [5] (setting [16]) is “L (50% or less control value)”. In addition, in assay [6] (setting [17]), the “Test A control value” is given as “L (50% or less control value)”. In addition, the “Test F control value” in assay [7] (setting [18]) is “L (50% or less control value)”. The “Test D control value” in assay [8] (setting [19]) is “L (50% or less control value)”.

Take `C#Cc1cc(Cl)c(=O)n(CC)c1-c1c(F)cc(F)cc1F` [compound 303]: the “Test E control value” in assay [1] (setting [12]) was “H (more than 50% control value)”. Also, the “Test B control value” in assay [2] (setting [13]) is “H (more than 50% control value)”. For the same compound, in assay [3] (setting [14]), the “Test G control value” was “L (50% or less control value)”. Further, the “Test H control value” in assay [4] (setting [15]) was “H (more than 50% control value)”. In assay [5] (setting [16]), the “Test C control value” was “H (more than 50% control value)”. Besides, the “Test A control value” in assay [6] (setting [17]) is given as “L (50% or less control value)”. Besides, the “Test F control value” in assay [7] (setting [18]) is listed as “L (50% or less control value)”. For the same compound, in assay [8] (setting [19]), the “Test D control value” is “H (more than 50% control value)”.

For `CCn1c(-c2c(F)cc(F)cc2F)c(CO)ccc1=O` [compound 478], the “Test E control value” in assay [1] (setting [9]) is given as “L (50% or less control value)”. Further, the “Test B control value” in assay [2] (setting [9]) is “L (50% or less control value)”. Also, in assay [3] (setting [10]), the “Test G control value” was “L (50% or less control value)”. Moreover, the “Test H control value” in assay [4] (setting [11]) was “L (50% or less control value)”. In assay [5] (setting [9]), the “Test C control value” is “L (50% or less control value)”. In assay [6] (setting [9]), the “Test A control value” is reported as “L (50% or less control value)”. The “Test F control value” in assay [7] (setting [9]) is on record as “L (50% or less control value)”. Besides, the “Test D control value” in assay [8] (setting [9]) is recorded as “H (more than 50% control value)”.

Turning to `CCn1c(-c2c(F)cc(F)cc2F)c(C(C)(C)C)cc(Br)c1=O` [compound 70], the “Test E control value class” value in assay [1] (Brown rust on wheat) is recorded as “H (more than 50% control value)”. Also, the “Test B control value class” value in assay [2] (Gray mold on tomato) was “H (more than 50% control value)”. Also, the “Test G control value class” value in assay [3] (250 ppm spray) is given as “L (50% or less control value)”. Moreover, the “Test H control value class” value in assay [4] (250 ppm spray) is given as “H (more than 50% control value)”. In addition, the “Test C control value class” value in assay [5] (setting [20]) is on record as “H (more than 50% control value)”. In addition, the “Test A control value class” value in assay [6] (Blast on rice) is “H (more than 50% control value)”. Moreover, in assay [7] (Late blight on tomato), the “Test F control value class” value was “L (50% or less control value)”. In addition, the “Test D control value class” value in assay [8] (Powdery mildew on barley) was “H (more than 50% control value)”.

(Values after patent publication US11147272B2, “Pyridone compounds and agricultural and horticultural fungicides comprising the same as active ingredients” (MITSUI CHEMICALS AGRO, INC., priority 2017, dated 2021).)
